# Data taken from patent US8138173B2, “Pyrazolo[3,4-C]quinolines, pyrazolo[3,4-C]naphthyridines, analogs thereof, and methods” (3M Innovative Properties Company, priority 2005, dated 2012).
# Structures can show the parent of a compound that is named as a salt.
row,melting point [°C],SMILES
1,75 to 77,"Clc1nc2ccccc2c2c(CCN3CCN(Cc4ccccc4)CC3)n(-c3ccccc3)nc12 [Example 23, 1-[2-(4-Benzylpiperazin-1-yl)ethyl]-4-chloro-2-phenyl-2H-pyrazolo[3,4-c]quinoline]"
2,207 to 209,"CCc1c2c(nn1-c1ccccc1)c(Cl)nc1ccccc12 [Example 15, 4-Chloro-1-ethyl-2-phenyl-2H-pyrazolo[3,4-c]quinoline]"
3,219 to 220,"CCn1nc2c(OC)nc3ccccc3c2c1CO [Example 5, (2-Ethyl-4-methoxy-2H-pyrazolo[3,4-c]quinolin-1-yl)methanol]"
4,145 to 147,"CCCn1nc2c(Cl)nc3ccccc3c2c1C [Example 1, 4-Chloro-1-methyl-2-propyl-2H-pyrazolo[3,4-c]quinoline]"
5,295 to 297,"CC(C)(C)n1nc2c(=O)[nH]c3ccccc3c2c1CO [Example 26, 2-tert-Butyl-1-(hydroxymethyl)-2,5-dihydro-4H-pyrazolo[3,4-c]quinolin-4-one]"
6,> 300,"CCCc1c2c(nn1-c1ccccc1)c(=O)[nH]c1ccccc12 [Example 28, 2-Phenyl-1-propyl-2,5-dihydro-4H-pyrazolo[3,4-c]quinolin-4-one]"
7,211 to 212.5,"O=c1[nH]c2ccccc2c2c(CCN3CCN(Cc4ccccc4)CC3)n(-c3ccccc3)nc12 [Example 24, 1-[2-(4-Benzylpiperazin-1-yl)ethyl]-2-phenyl-2,5-dihydro-4H-pyrazolo[3,4-c]quinolin-4-one]"
8,250 to 252,"O=c1[nH]c2ccccc2c2c(CCC3CCNCC3)n(-c3ccccc3)nc12 [Example 6, 2-Phenyl-1-(2-piperidin-4-ylethyl)-2,5-dihydro-4H-pyrazolo[3,4-c]quinolin-4-one]"
9,208 to 209,"Cc1c2c(nn1-c1ccccc1)c(Cl)nc1ccccc12 [Example 12, 4-Chloro-1-methyl-2-phenyl-2H-pyrazolo[3,4-c]quinoline]"
10,283 to 285,O=C(Cc1c2c(nn1-c1ccccc1)c(=O)[nH]c1ccccc12)N1CCN(Cc2ccccc2)CC1
11,294 to 296,"CCCn1nc2c(O)nc3ccccc3c2c1CC(C)(C)O [Example 29, 1-(2-Hydroxy-2-methylpropyl)-2-propyl-2H-pyrazolo[3,4-c]quinolin-4-ol]"
12,> 280,"CC(C)Cc1c2c(nn1C)c(O)nc1ccccc12 [Example 27, 1-Isobutyl-2-methyl-2H-pyrazolo[3,4-c]quinolin-4-ol]"
13,331 to 334,"CCc1c2c(nn1-c1ccccc1)c(=O)[nH]c1ccccc12 [Example 14, 1-Ethyl-2-phenyl-2,5-dihydro-4H-pyrazolo[3,4-c]quinolin-4-one]"

# Further lines, the compound ahead of its results:
row,SMILES,melting point [°C]
1,"O=c1[nH]c2ccccc2c2c(CCO)n(-c3ccccc3)nc12 [Example 20, 1-(2-Hydroxyethyl)-2-phenyl-2,5-dihydro-4H-pyrazolo[3,4-c]quinolin-4-one]",310 to 312
2,"Clc1nc2ccccc2c2c(CCC3CCNCC3)n(-c3ccccc3)nc12 (as salt: HCl) [Example 7, 4-Chloro-2-phenyl-1-(2-piperidin-4-ylethyl)-2H-pyrazolo[3,4-c]quinoline]",194
3,"Cc1c2c(cnc3ccccc32)nn1-c1ccccc1 [Example 13, 1-Methyl-2-phenyl-2H-pyrazolo[3,4-c]quinoline]",128 to 130
4,"CC(C)(C)OC(=O)N1CCC(CCc2c3c(nn2C(C)(C)C)c(=O)[nH]c2ccccc23)CC1 [Example 25, tert-Butyl 4-[2-(2-tert-butyl-4-oxo-4,5-dihydro-2H-pyrazolo[3,4-c]quinolin-1-yl)ethyl]piperidine-1-carboxylate]",223 to 225
5,"Cc1c2c(nn1-c1ccccc1)c(=O)[nH]c1ccccc12 [Example 11, 1-Methyl-2-phenyl-2,5-dihydro-4H-pyrazolo[3,4-c]quinolin-4-one]",> 250
6,"CCOC(=O)Cc1c2c(nn1CC)c(=O)[nH]c1ccccc12 [Example 17, Ethyl (2-ethyl-4-oxo-4,5-dihydro-2H-pyrazolo[3,4-c]quinolin-1-yl)acetate]",233 to 235
7,"CC(C)(C)OC(=O)N1CCC(CC(O)c2c3c(nn2-c2ccccc2)c(=O)[nH]c2ccccc23)CC1 (stereo not shown) [Example 8, tert-Butyl 4-[2-hydroxy-2-(4-oxo-2-phenyl-4,5-dihydro-2H-pyrazolo[3,4-c]quinolin-1-yl)ethyl]piperidine-1-carboxylate]",253 to 254
8,O=C(Cc1c2c(nn1-c1ccccc1)c(Cl)nc1ccccc12)N1CCN(Cc2ccccc2)CC1,210.5 to 211.5
9,"CCOC(=O)Cc1c2c(nn1-c1ccccc1)c(=O)[nH]c1ccccc12 [Example 18, Ethyl (4-oxo-2-phenyl-4,5-dihydro-2H-pyrazolo[3,4-c]quinolin-1-yl)acetate]",301 to 303
10,"O=c1[nH]c2ccccc2c2c(C(O)CC3CCCCC3)n(-c3ccccc3)nc12 (stereo not shown) [Example 10, 1-(2-Cyclohexyl-1-hydroxyethyl)-2-phenyl-2,5-dihydro-4H-pyrazolo[3,4-c]quinolin-4-one]",254 to 259
11,"CCCCc1c2c(nn1-c1ccccc1)c(Cl)nc1ccccc12 [Example 16, 1-Butyl-4-chloro-2-phenyl-2H-pyrazolo[3,4-c]quinoline]",239 to 243
12,"O=c1[nH]c2ccccc2c2c(C(O)CC3CCNCC3)n(-c3ccccc3)nc12 (stereo not shown) [Example 9, 1-(1-Hydroxy-2-piperidin-4-ylethyl)-2-phenyl-2,5-dihydro-4H-pyrazolo[3,4-c]quinolin-4-one]",258 to 261
